Where two headings read alike, the source gives them in different places. Where only a bound is given, the exact number is not on record here.

Experimental findings from patent US20230295157A1, “3-(1H-IMIDAZOL-2-YL)-2,3,8,8A-TETRAHYDROINDOLIZIN-5(1H)-ONE DERIVATIVES USEFUL AS FACTOR XIA INHIBITORS” (JANSSEN PHARMACEUTICA NV, priority 2020, published 2023) are described below.

For one assay, the target named is Factor XIa (Homo sapiens (Human), UniProt P03951). The assay can be described thus: Factor XIa inhibition assay (FLINT) utilizing a fluorophore-quencher pair peptide substrate. It counts as biochemical. As to conditions: 30 min preincubation, kinetic reads over 30 min, read-out: FXIa Kin Inh IC50. The method in brief: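 FXIa ([…]) preincubated 30 min with compound (11-point 3-fold dilution, top 100 nM, 2% DMSO), then 15 μM quenched FXI Arg146-based peptide added; Tris pH 7.5, CaCl2, BSA, CHAPS. Fluorescence 485/520 nm read kinetically every 5 min over 30 min at RT; IC50 by 4-parameter fit.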

The target in a further assay is human plasma kallikrein (Homo sapiens (Human), UniProt P03952). In words: Kallikrein inhibition assay (FLINT) utilizing a quenched AMC peptide substrate. It counts as biochemical. As to conditions: 30 min preincubation, read-out: Kallikrein Kin Inh IC50. The method in brief: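 Enzyme (2 nM final) pre-incubated 30 min at room temperature with compound (11-point, 3-fold, top 1 μM, 2% DMSO), then 50 μM Z-Gly-Pro-Arg-AMC added in Tris pH 7.5 buffer. Kinetic fluorescence 340/440 nm every 5 min over 30 min; IC50 from 4-parameter logistic fit.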

Where [1] appears, read: 5Fam-KLTRAETV-K5Tamra substrate 15 μM.
[2] abbreviates: kinetic reads over 30 min, Z-Gly-Pro-Arg-AMC substrate 50 μM.
Where [3] appears, read: 5Fam-[…]-K5Tamra substrate 15 μM.

Sequence of Factor XIa (P03951 388-625): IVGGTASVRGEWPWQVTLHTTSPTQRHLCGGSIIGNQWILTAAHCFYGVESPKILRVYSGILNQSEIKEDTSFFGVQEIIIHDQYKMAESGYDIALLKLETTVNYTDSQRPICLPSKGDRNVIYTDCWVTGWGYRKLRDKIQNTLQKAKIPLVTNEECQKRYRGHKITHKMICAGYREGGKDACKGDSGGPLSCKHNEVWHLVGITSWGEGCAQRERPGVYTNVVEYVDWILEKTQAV
Sequence of Factor XIa (P03951 19-387 partner): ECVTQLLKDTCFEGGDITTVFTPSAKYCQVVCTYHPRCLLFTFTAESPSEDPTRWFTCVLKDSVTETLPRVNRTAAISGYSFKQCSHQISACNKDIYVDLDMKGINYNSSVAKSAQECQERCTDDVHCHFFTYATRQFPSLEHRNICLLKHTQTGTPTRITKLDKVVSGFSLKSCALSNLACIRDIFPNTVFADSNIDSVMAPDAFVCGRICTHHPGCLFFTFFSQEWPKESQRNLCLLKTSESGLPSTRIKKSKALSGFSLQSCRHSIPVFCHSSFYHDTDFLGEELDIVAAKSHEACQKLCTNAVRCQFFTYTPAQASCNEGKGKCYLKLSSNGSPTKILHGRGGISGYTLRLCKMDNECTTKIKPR
Sequence of human plasma kallikrein (P03952 391-638): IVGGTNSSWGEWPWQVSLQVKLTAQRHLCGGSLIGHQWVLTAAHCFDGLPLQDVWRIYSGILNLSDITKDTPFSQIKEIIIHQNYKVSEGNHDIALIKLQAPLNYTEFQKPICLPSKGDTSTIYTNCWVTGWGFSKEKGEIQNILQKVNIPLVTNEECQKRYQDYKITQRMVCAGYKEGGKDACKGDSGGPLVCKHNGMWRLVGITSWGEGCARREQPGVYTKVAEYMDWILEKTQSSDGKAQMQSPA
Sequence of human plasma kallikrein (P03952 20-390 partner): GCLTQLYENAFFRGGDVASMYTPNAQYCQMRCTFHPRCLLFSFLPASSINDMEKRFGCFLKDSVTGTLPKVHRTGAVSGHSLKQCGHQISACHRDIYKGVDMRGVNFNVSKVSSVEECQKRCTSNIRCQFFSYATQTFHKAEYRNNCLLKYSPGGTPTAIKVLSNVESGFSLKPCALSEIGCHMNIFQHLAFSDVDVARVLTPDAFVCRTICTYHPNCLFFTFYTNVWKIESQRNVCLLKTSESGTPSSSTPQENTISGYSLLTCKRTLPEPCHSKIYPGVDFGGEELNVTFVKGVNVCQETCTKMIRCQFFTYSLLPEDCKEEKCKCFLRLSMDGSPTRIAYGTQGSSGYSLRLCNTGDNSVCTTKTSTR

Regarding `O=C1C=C(c2c(-n3cnnn3)ccc(Cl)c2F)C[C@H]2CC[C@H](c3ncc(-c4c[nH]nc4C(F)(F)F)[nH]3)N12` (single isomer, unassigned) [Example 239, (3*R,8a*R)-7-(3-Chloro-2-fluoro-6-(1H-tetrazol-1-yl)phenyl)-3-(5-(3-(trifluoromethyl)-1H-pyrazol-4-yl)-1H-imidazol-2-yl)-2,3,8,8a-tetrahydroindolizin-5(1H)-one], the values for the concentration for half-maximal inhibition (IC50) at Factor XIa (setting [1]) and on human plasma kallikrein (setting [2]) were 1.5 nM and 0.0159 µM, respectively.

With `O=C1C=C(c2c(-n3cnnn3)ccc(Cl)c2F)C[C@H]2CC[C@@H](c3ncc(-c4c[nH]nc4C(F)(F)F)[nH]3)N12` (single isomer, unassigned) [Example 240, (3*S,8a*R)-7-(3-Chloro-2-fluoro-6-(1H-tetrazol-1-yl)phenyl)-3-(5-(3-(trifluoromethyl)-1H-pyrazol-4-yl)-1H-imidazol-2-yl)-2,3,8,8a-tetrahydroindolizin-5(1H)-one], the IC50 – broadly, the concentration needed to halve the response being measured – on Factor XIa (setting [1]) was found to be 0.6 nM; on human plasma kallikrein (setting [2]), 0.0129 µM.

Turning to `O=C1Cc2cc(-c3cnc([C@@H]4CC[C@@H]5CC(c6c(-n7cnnn7)ccc(Cl)c6F)=CC(=O)N54)[nH]3)ccc2N1` (single isomer, unassigned) [Example 284], the results for the IC50 at Factor XIa (setting [1]) and at human plasma kallikrein (setting [2]) were 1.3 nM and 0.0035 µM, respectively.

Regarding `O=C1C=C(c2c(-n3cnnn3)ccc(Cl)c2F)C[C@H]2CC[C@@H](c3ncc(-c4ccc5[nH]c(=O)[nH]c5c4)[nH]3)N12` (single isomer, unassigned) [Example 286], the concentration for half-maximal inhibition (IC50) was 1.5 nM on Factor XIa (setting [1]) and 0.0011 µM on human plasma kallikrein (setting [2]).

On to `CCC(=O)Nc1ccccc1-c1c[nH]c([C@@H]2CC[C@@H]3CC(c4c(-n5cnnn5)ccc(Cl)c4F)=CC(=O)N32)n1` (single isomer, unassigned) [Example 295, N-(2-(2-((3S,8aR*)-7-(3-Chloro-2-fluoro-6-(1H-tetrazol-1-yl)phenyl)-5-oxo-1,2,3,5,8,8a-hexahydroindolizin-3-yl)-1H-imidazol-4-yl)phenyl)propionamide], for which the IC50 at Factor XIa (setting [1]) was found to be 0.7 nM; at human plasma kallikrein (setting [2]), 0.0026 µM.

In the case of `Cn1cc(-c2ccccc2NC(=O)C2CC2)nc1[C@@H]1CC[C@@H]2CC(c3c(-n4cnnn4)ccc(Cl)c3F)=CC(=O)N21` (single isomer, unassigned) [Example 298, N-(2-(2-((3S,8aR*)-7-(3-Chloro-2-fluoro-6-(1H-tetrazol-1-yl)phenyl)-5-oxo-1,2,3,5,8,8a-hexahydroindolizin-3-yl)-1-methyl-1H-imidazol-4-yl)phenyl)cyclopropanecarboxamide], the IC50 is more than 100 nM on Factor XIa (setting [1]) and 1.05 µM on human plasma kallikrein (μM, kinetic reads).

Consider `C[C@@H]1C[C@@H](c2ncc(-c3ccc(N)nc3F)[nH]2)N2C(=O)C=C(c3c(-n4cnnn4)ccc(Cl)c3F)C[C@H]12` (single isomer, unassigned) [Example 345, (1*R,3S,8a*R)-3-(5-(6-Amino-2-fluoropyridin-3-yl)-1H-imidazol-2-yl)-7-(3-chloro-2-fluoro-6-(1H-tetrazol-1-yl)phenyl)-1-methyl-2,3,8,8a-tetrahydroindolizin-5(1H)-one], for which the values for the concentration for half-maximal inhibition (IC50) on Factor XIa (setting [1]) and at human plasma kallikrein (setting [2]) were 2.6 nM and 0.0145 µM, respectively.

`C[C@H]1C[C@@H](c2ncc(-c3ccc(N)nc3F)[nH]2)N2C(=O)C=C(c3c(-n4cnnn4)ccc(Cl)c3F)C[C@@H]12` (single isomer, unassigned) [Example 346, (1*S,3S,8a*S)-3-(5-(6-Amino-2-fluoropyridin-3-yl)-1H-imidazol-2-yl)-7-(3-chloro-2-fluoro-6-(1H-tetrazol-1-yl)phenyl)-1-methyl-2,3,8,8a-tetrahydroindolizin-5(1H)-one]: the IC50 on Factor XIa (setting [1]) was determined as 1.3 nM; at human plasma kallikrein (setting [2]) it was 0.0082 µM.

`Nc1ccc(-c2cnc([C@@H]3CC[C@@H]4C(=O)N(c5cc(Cl)ccc5-n5cnnn5)CC(=O)N43)[nH]2)c(F)n1` (single isomer, unassigned) [Example 360, (6S*,8aR*)-6-(5-(6-amino-2-fluoropyridin-3-yl)-1H-imidazol-2-yl)-2-(5-chloro-2-(1H-tetrazol-1-yl)phenyl)hexahydropyrrolo[1,2-a]pyrazine-1,4-dione]: the IC50 was determined as 12 nM on Factor XIa (setting [3]) and 0.11 µM at human plasma kallikrein (setting [2]).

With `O=C1C=C(c2c(-n3cnnn3)ccc(Cl)c2F)C[C@H]2CC[C@@H](c3ncc(-c4ccnc5[nH]ccc45)[nH]3)N12` (single isomer, unassigned) [Example 362, (3S,8aR*)-3-(5-(1H-pyrrolo[2,3-b]pyridin-4-yl)-1H-imidazol-2-yl)-7-(3-chloro-2-fluoro-6-(1H-tetrazol-1-yl)phenyl)-2,3,8,8a-tetrahydroindolizin-5(1H)-one], the values for the IC50 at Factor XIa (setting [1]) and on human plasma kallikrein (setting [2]) were 0.1 nM and 0.0025 µM, respectively.

Take `O=C1C=C(c2c(-n3cnnn3)ccc(Cl)c2F)CC2CC[C@@H](c3nc(-c4ccnc(OC(F)F)c4)c(F)[nH]3)N12` (stereo in doubt) [Example 3, (S)-7-[3-Chloro-2-fluoro-6-(tetrazol-1-yl)phenyl]-3-[4-[2-(difluoromethoxy)-4-pyridyl]-5-fluoro-1H-imidazol-2-yl]-2,3,8,8a-tetrahydro-1H-indolizin-5-one]: the results for the IC50 on Factor XIa (setting [3]) and on human plasma kallikrein (setting [2]) were 3.9 nM and 0.0054 µM, respectively.

In the case of `[2H]c1nc(C2CCC3CC(c4c(-n5cnnn5)ccc(Cl)c4F)=CC(=O)N32)[nH]c1-c1ccc(N)nc1F` (stereo in doubt) [Example 154, (3S,8aR)-3-[5-(6-amino-2-fluoro-3-pyridyl)-4-deuterio-1H-imidazol-2-yl]-7-[3-chloro-2-fluoro-6-(tetrazol-1-yl)phenyl]-2,3,8,8a-tetrahydro-1H-indolizin-5-one], the IC50 was 0.4 nM on Factor XIa (setting [3]) and 0.0057 µM on human plasma kallikrein (setting [2]).

For `O=C1C=C(c2c(-n3cnnn3)ccc(Cl)c2F)C[C@@H]2CC[C@H](c3ncc(-c4ccnc(N5CCC[C@@H](O)C5)c4F)[nH]3)N12` (stereo in doubt) [Example 187, (3R,8aS)-7-(3-chloro-2-fluoro-6-(1H-tetrazol-1-yl)phenyl)-3-(5-(3-fluoro-2-((R)-3-hydroxypiperidin-1-yl)pyridin-4-yl)-1H-imidazol-2-yl)-2,3,8,8a-tetrahydroindolizin-5(1H)-one], the results for the IC50 at Factor XIa (setting [1]) and on human plasma kallikrein (setting [2]) were 3.7 nM and 0.0041 µM, respectively.

Turning to `COc1c(-c2cnc(C3CC[C@H]4CC(c5c(-n6cnnn6)ccc(Cl)c5F)=CC(=O)N34)[nH]2)ccnc1N` (stereo in doubt) [Example 382, (3R,8aS)-3-(5-(2-amino-3-methoxypyridin-4-yl)-1H-imidazol-2-yl)-7-(3-chloro-2-fluoro-6-(1H-tetrazol-1-yl)phenyl)-2,3,8,8a-tetrahydroindolizin-5(1H)-one], the IC50 is 1.4 nM on Factor XIa (setting [1]) and 0.0277 µM on human plasma kallikrein (setting [2]).

Regarding `Nc1cc(-c2[nH]c([C@@H]3CC[C@@H]4CC(c5c(-n6cnnn6)ccc(Cl)c5F)=CC(=O)N43)nc2F)c(Cl)cn1` [Example 1, (3S,8aR)-3-[5-(2-Amino-5-chloro-4-pyridyl)-4-fluoro-1H-imidazol-2-yl]-7-[3-chloro-2-fluoro-6-(tetrazol-1-yl)phenyl]-2,3,8,8a-tetrahydro-1H-indolizin-5-one], the results for the IC50 on Factor XIa (setting [1]) and at human plasma kallikrein (setting [2]) were 12.6 nM and 0.0679 µM, respectively.

With `O=C1C=C(c2c(-n3cnnn3)ccc(Cl)c2F)C[C@H]2CC[C@@H](c3ncc(-c4ccnc(-c5ncc[nH]5)c4F)[nH]3)N12` [Example 2, (3S,8aR)-7-[3-Chloro-2-fluoro-6-(tetrazol-1-yl)phenyl]-3-[5-[3-fluoro-2-(1H-imidazol-2-yl)-4-pyridyl]-1H-imidazol-2-yl]-2,3,8,8a-tetrahydro-1H-indolizin-5-one], the values for the concentration for half-maximal inhibition (IC50) at Factor XIa (setting [1]) and at human plasma kallikrein (setting [2]) were 1.9 nM and 0.0093 µM, respectively.
